In PubChem BioAssay AID1963968 (Molecular Pharmacology Branch, DTP, NCI, 2024):

Tested on: 945468-187-T-J3-PDC spheroids with HUVEC/MSC, viability
Assay: Anticancer human tumor 945468-187-T-J3-PDC patient-derived rectal carcinoma cell line growth inhibition [PI3K]
Details: for IC50: curve of first compound; for viability, T/C: stronger effect = lower value
Summary of the method: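 Multi-cell spheroids combine tumor cells with HUVEC and human MSCs, treated with targeted agents alone or with inavolisib, alpelisib, duvelisib or copanlisib. Concentrations fall in half-log steps from at or near clinical Cmax, or from 10 microM where Cmax is unknown; viability read-out.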

[1] = second compound 0.0316 µM, first compound 0.0316 µM
[2] = second compound 0.0316 µM, first compound 0.1 µM
[3] = second compound 0.0316 µM, first compound 0.316 µM
[4] = second compound 0.0316 µM, first compound 1 µM
[5] = second compound 0.1 µM, first compound 0.0316 µM
[6] = second compound 0.1 µM, first compound 0.1 µM
[7] = second compound 0.1 µM, first compound 0.316 µM
[8] = second compound 0.1 µM, first compound 1 µM
[9] = second compound 0.316 µM, first compound 0.0316 µM
[10] = second compound 0.316 µM, first compound 0.1 µM
[11] = second compound 0.316 µM, first compound 0.316 µM
[12] = second compound 0.316 µM, first compound 1 µM
[13] = second compound 1 µM, first compound 0.0316 µM
[14] = second compound 1 µM, first compound 0.1 µM
[15] = second compound 1 µM, first compound 0.316 µM
[16] = second compound 1 µM, first compound 1 µM
[17] = second compound 3.16 µM, first compound 0.0316 µM
[18] = second compound 3.16 µM, first compound 0.1 µM
[19] = second compound 3.16 µM, first compound 0.316 µM
[20] = second compound 3.16 µM, first compound 1 µM
[21] = second compound 10 µM, first compound 0.0316 µM
[22] = second compound 10 µM, first compound 0.1 µM
[23] = second compound 10 µM, first compound 0.316 µM
[24] = second compound 10 µM, first compound 1 µM
[25] = second compound 0.0316 µM, first compound 0.00316 µM
[26] = second compound 0.0316 µM, first compound 0.01 µM
[27] = second compound 0.1 µM, first compound 0.00316 µM
[28] = second compound 0.1 µM, first compound 0.01 µM
[29] = second compound 0.316 µM, first compound 0.00316 µM
[30] = second compound 0.316 µM, first compound 0.01 µM
[31] = second compound 1 µM, first compound 0.00316 µM
[32] = second compound 1 µM, first compound 0.01 µM
[33] = second compound 3.16 µM, first compound 0.00316 µM
[34] = second compound 3.16 µM, first compound 0.01 µM
[35] = second compound 10 µM, first compound 0.00316 µM
[36] = second compound 10 µM, first compound 0.01 µM
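Also: spheroids exposed to agents for 7 days before viability read.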
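For viability, T/C in this document: 100% = DMSO vehicle control viability.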

With `CC(C)NCC(C(=O)N1CCN(c2ncnc3c2C(C)CC3O)CC1)c1ccc(Cl)cc1` (stereo unspecified) + Cc1nc(NC(=O)N2CCCC2C(N)=O)sc1-c1ccnc(C(C)(C)C(F)(F)F)c1 the IC50 (second compound 0.0316 µM) was greater than 10000 nM, the IC50 (second compound 0.1 µM) was greater than 10000 nM and the IC50 (second compound 0.316 µM) was 5360 nM. For the same compound, the IC50 (second compound 1 µM) was 2900 nM, the IC50 (second compound 3.16 µM) was 1710 nM and the IC50 (second compound 10 µM) was 303 nM. The viability, T/C [1] was 109%, the viability, T/C [2] was 116% and the viability, T/C [3] was 84.4%. The viability, T/C [4] was 94.1%, the viability, T/C (second compound 0.0316 µM, first compound 3.16 µM) was 76.9% and the viability, T/C (second compound 0.0316 µM, first compound 10 µM) was 55%. The viability, T/C [5] was 103%, the viability, T/C [6] was 101% and the viability, T/C [7] was 93.3%. For the same compound, the viability, T/C [8] was 91.8%, the viability, T/C (second compound 0.1 µM, first compound 3.16 µM) was 80.6% and the viability, T/C (second compound 0.1 µM, first compound 10 µM) was 54.6%. For the same compound, the viability, T/C [9] was 114%, the viability, T/C [10] was 104% and the viability, T/C [11] was 99.4%. For the same compound, the viability, T/C [12] was 88.3%, the viability, T/C (second compound 0.316 µM, first compound 3.16 µM) was 60% and the viability, T/C (second compound 0.316 µM, first compound 10 µM) was 36.4%. For the same compound, the viability, T/C [13] was 99.6%, the viability, T/C [14] was 104% and the viability, T/C [15] was 91.9%. The viability, T/C [16] was 80.7%, the viability, T/C (second compound 1 µM, first compound 3.16 µM) was 46.5% and the viability, T/C (second compound 1 µM, first compound 10 µM) was 32.6%. The viability, T/C [17] was 92.6%, the viability, T/C [18] was 87.8% and the viability, T/C [19] was 82.1%. The viability, T/C [20] was 59.3%, the viability, T/C (second compound 3.16 µM, first compound 3.16 µM) was 38.9% and the viability, T/C (second compound 3.16 µM, first compound 10 µM) was 27.1%. The viability, T/C [21] was 68.9%, the viability, T/C [22] was 54.6% and the viability, T/C [23] was 51%. The viability, T/C [24] was 45%, the viability, T/C (second compound 10 µM, first compound 3.16 µM) was 36.9% and the viability, T/C (second compound 10 µM, first compound 10 µM) was 33.2%.

For `CCN1CCN(Cc2ccc(Nc3ncc(F)c(-c4cc(F)c5nc(C)n(C(C)C)c5c4)n3)nc2)CC1` + Cc1nc(NC(=O)N2CCCC2C(N)=O)sc1-c1ccnc(C(C)(C)C(F)(F)F)c1, the IC50 (second compound 0.0316 µM) was greater than 1000 nM, the IC50 (second compound 0.1 µM) was greater than 1000 nM and the IC50 (second compound 0.316 µM) was greater than 1000 nM. It also gave an IC50 (second compound 1 µM) of 735 nM, an IC50 (second compound 3.16 µM) of 299 nM and an IC50 (second compound 10 µM) of 35.5 nM. For the same compound, the viability, T/C [25] was 83.5%, the viability, T/C [26] was 103% and the viability, T/C [1] was 95.6%. For the same compound, the viability, T/C [2] was 105%, the viability, T/C [3] was 115% and the viability, T/C [4] was 105%. For the same compound, the viability, T/C [27] was 87.8%, the viability, T/C [28] was 97.9% and the viability, T/C [5] was 107%. The viability, T/C [6] was 103%, the viability, T/C [7] was 121% and the viability, T/C [8] was 102%. For the same compound, the viability, T/C [29] was 97%, the viability, T/C [30] was 96.2% and the viability, T/C [9] was 95.6%. It also gave a viability, T/C [10] of 107%, a viability, T/C [11] of 113% and a viability, T/C [12] of 53.5%. It also gave a viability, T/C [31] of 102%, a viability, T/C [32] of 103% and a viability, T/C [13] of 101%. For the same compound, the viability, T/C [14] was 106%, the viability, T/C [15] was 90.3% and the viability, T/C [16] was 35.2%. The viability, T/C [33] was 107%, the viability, T/C [34] was 97.5% and the viability, T/C [17] was 88.9%. It also gave a viability, T/C [18] of 99.3%, a viability, T/C [19] of 47.5% and a viability, T/C [20] of 26.9%. For the same compound, the viability, T/C [35] was 65.6%, the viability, T/C [36] was 59.4% and the viability, T/C [21] was 45.6%. For the same compound, the viability, T/C [22] was 45.8%, the viability, T/C [23] was 35.2% and the viability, T/C [24] was 23.7%.

Work on `Cn1ncnc1[C@H]1c2n[nH]c(=O)c3cc(F)cc(c23)N[C@@H]1c1ccc(F)cc1` + Cc1nc(NC(=O)N2CCCC2C(N)=O)sc1-c1ccnc(C(C)(C)C(F)(F)F)c1 yielded an IC50 (second compound 0.0316 µM) greater than 100 nM, an IC50 (second compound 0.1 µM) greater than 100 nM and an IC50 (second compound 0.316 µM) greater than 100 nM. For the same compound, the IC50 (second compound 1 µM) was greater than 100 nM, the IC50 (second compound 3.16 µM) was greater than 100 nM and the IC50 (second compound 10 µM) was greater than 100 nM. The viability, T/C (second compound 0.0316 µM, first compound 0.000316 µM) was 96.6%, the viability, T/C (second compound 0.0316 µM, first compound 0.001 µM) was 102% and the viability, T/C [25] was 101%. The viability, T/C [26] was 116%, the viability, T/C [1] was 116% and the viability, T/C [2] was 114%. For the same compound, the viability, T/C (second compound 0.1 µM, first compound 0.000316 µM) was 105%, the viability, T/C (second compound 0.1 µM, first compound 0.001 µM) was 105% and the viability, T/C [27] was 91.8%. It also gave a viability, T/C [28] of 106%, a viability, T/C [5] of 120% and a viability, T/C [6] of 100%. It also gave a viability, T/C (second compound 0.316 µM, first compound 0.000316 µM) of 111%, a viability, T/C (second compound 0.316 µM, first compound 0.001 µM) of 103% and a viability, T/C [29] of 92.6%. For the same compound, the viability, T/C [30] was 118%, the viability, T/C [9] was 115% and the viability, T/C [10] was 105%. For the same compound, the viability, T/C (second compound 1 µM, first compound 0.000316 µM) was 118%, the viability, T/C (second compound 1 µM, first compound 0.001 µM) was 109% and the viability, T/C [31] was 89.9%. The viability, T/C [32] was 115%, the viability, T/C [13] was 99.8% and the viability, T/C [14] was 97.4%. For the same compound, the viability, T/C (second compound 3.16 µM, first compound 0.000316 µM) was 116%, the viability, T/C (second compound 3.16 µM, first compound 0.001 µM) was 103% and the viability, T/C [33] was 98.7%. The viability, T/C [34] was 109%, the viability, T/C [17] was 107% and the viability, T/C [18] was 103%. The viability, T/C (second compound 10 µM, first compound 0.000316 µM) was 58.2%, the viability, T/C (second compound 10 µM, first compound 0.001 µM) was 68% and the viability, T/C [35] was 61.3%. The viability, T/C [36] was 53.3%, the viability, T/C [21] was 63.7% and the viability, T/C [22] was 51.3%.
